Results: ChEMBL document CHEMBL5143583, “Discovery of pyrroledione analogs as potent transient receptor potential canonical channel 5 inhibitors” (Bioorg Med Chem Lett, 2022)
Activity calls are given as the source filed them. The rule behind the calls is not given here.

What was measured:
[1] = molecular target: T1, Short transient receptor potential channel 5 (Homo sapiens, UniProt Q9UL62); experiment: Inhibition of TRPC5 channel (unknown origin) expressed in HEK293 cells assessed as inhibition of EA-evoked Ca2+ entry by measuring reduction in intracellular Ca2+ level by Fluo-4 dye based FLIPR assay; format: cell-based
T1 sequence (Q9UL62 whole entry): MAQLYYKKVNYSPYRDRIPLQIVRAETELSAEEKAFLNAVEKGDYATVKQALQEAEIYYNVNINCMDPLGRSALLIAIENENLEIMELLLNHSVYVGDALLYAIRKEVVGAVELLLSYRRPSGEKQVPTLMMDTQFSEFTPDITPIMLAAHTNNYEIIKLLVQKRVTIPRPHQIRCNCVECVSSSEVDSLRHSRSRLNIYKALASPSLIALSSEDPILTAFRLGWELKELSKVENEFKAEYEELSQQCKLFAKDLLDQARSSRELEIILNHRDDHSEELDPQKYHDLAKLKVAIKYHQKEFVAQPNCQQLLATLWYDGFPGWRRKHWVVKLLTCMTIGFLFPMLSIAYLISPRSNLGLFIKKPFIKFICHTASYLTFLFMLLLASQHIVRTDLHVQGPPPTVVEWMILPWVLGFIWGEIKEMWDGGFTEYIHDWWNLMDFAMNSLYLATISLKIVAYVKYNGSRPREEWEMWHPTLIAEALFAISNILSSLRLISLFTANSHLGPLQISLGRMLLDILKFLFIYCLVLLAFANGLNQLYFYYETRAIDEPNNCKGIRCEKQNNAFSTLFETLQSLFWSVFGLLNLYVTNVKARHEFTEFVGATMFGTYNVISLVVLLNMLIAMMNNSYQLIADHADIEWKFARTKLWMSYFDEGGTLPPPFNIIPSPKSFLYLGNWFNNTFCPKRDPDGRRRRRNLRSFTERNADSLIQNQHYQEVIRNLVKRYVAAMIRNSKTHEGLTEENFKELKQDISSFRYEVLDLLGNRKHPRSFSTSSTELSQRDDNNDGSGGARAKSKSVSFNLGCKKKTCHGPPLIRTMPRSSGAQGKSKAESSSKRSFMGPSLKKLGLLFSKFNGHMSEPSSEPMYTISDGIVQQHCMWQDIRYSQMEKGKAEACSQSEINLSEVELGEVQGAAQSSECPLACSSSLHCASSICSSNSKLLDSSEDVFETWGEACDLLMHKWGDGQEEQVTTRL

[2] = Cytotoxicity against mouse MPC5 cells assessed as reduction in cell viability at 1 to 10 uM by MTT assay; format: toxicity, cell-based; settings: mpc-5, 10 µM, dose 1-10 µM
MPC-5 = experiment: Reno-protectant activity against protamine sulfate-induced podocytes injury in mouse MPC5 cells assessed as reduction in PS-induced podocytes rearrangement and rupture of stress fibers at 0.1 to 3 uM pretreated for 30 mins followed by stimulation with PS for 100 mins; format: functional, cell-based; settings: dose 0.1-3 µM, time 130.0 min, DDE = dose-dependent effect
Hepatocyte = experiment: Cytotoxicity against primary mouse hepatocytes assessed as reduction in cell viability at 1 to 10 uM by MTT assay; format: toxicity, cell-based; settings: dose 1-10 µM
[3] = molecular target: T1, Short transient receptor potential channel 5; experiment: Inhibition of human TRPC5 channel expressed in HEK293 cells assessed as inhibition of EA-evoked channel current measured at +80 mV by whole-cell voltage clamp assay; format: cell-based
[4] = molecular target: T2, Short transient receptor potential channel 4 (Homo sapiens, UniProt Q9UBN4); experiment: (§1) Inhibition of TRPC4 channel (unknown origin) expressed in HEK293 cells assessed as inhibition of EA-evoked Ca2+ entry by measuring reduction in intracellular Ca2+ level by Fluo-4 dye based FLIPR assay; format: cell-based
T2 sequence (Q9UBN4 whole entry): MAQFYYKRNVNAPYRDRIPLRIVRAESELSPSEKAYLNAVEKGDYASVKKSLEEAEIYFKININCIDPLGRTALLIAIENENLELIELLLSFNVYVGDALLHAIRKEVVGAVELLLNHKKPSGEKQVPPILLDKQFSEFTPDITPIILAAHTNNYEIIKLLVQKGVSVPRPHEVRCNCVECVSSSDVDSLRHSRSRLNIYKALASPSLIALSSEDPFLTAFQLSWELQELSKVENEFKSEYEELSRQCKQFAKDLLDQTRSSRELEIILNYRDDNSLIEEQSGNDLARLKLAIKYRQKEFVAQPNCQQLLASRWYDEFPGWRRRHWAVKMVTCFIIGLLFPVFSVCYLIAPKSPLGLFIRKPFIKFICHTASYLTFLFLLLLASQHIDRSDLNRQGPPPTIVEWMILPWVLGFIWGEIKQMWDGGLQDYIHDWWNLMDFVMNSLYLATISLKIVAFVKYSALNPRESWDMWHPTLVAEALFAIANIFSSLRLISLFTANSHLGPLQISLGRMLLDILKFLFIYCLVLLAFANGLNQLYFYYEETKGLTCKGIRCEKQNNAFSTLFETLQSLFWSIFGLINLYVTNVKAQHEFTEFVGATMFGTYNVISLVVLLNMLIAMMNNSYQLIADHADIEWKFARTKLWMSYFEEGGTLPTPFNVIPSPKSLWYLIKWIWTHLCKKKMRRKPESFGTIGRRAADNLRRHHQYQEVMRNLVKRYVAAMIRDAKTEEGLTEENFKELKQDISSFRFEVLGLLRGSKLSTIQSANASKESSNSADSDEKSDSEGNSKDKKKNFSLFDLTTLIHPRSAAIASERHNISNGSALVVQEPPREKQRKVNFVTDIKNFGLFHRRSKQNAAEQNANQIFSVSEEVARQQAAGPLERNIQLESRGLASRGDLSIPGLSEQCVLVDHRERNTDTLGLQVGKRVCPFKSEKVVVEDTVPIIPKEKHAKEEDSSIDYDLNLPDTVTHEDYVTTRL

[5] = molecular target: T3, Short transient receptor potential channel 4 (Homo sapiens) (UniProt Q9UBN4); experiment: as §1; format: cell-based; settings: DDE = dose-dependent effect
T3 sequence (whole entry): T2 sequence (Q9UBN4 whole entry)

[6] = molecular target: T4, Short transient receptor potential channel 3 (Homo sapiens) (UniProt Q13507); experiment: Inhibition of human TRPC3 channel expressed in HEK293 cells assessed as inhibition of OAG-evoked Ca2+ entry by measuring reduction in intracellular Ca2+ level by Fluo-4 dye based FLIPR assay; format: cell-based
T4 sequence (whole entry): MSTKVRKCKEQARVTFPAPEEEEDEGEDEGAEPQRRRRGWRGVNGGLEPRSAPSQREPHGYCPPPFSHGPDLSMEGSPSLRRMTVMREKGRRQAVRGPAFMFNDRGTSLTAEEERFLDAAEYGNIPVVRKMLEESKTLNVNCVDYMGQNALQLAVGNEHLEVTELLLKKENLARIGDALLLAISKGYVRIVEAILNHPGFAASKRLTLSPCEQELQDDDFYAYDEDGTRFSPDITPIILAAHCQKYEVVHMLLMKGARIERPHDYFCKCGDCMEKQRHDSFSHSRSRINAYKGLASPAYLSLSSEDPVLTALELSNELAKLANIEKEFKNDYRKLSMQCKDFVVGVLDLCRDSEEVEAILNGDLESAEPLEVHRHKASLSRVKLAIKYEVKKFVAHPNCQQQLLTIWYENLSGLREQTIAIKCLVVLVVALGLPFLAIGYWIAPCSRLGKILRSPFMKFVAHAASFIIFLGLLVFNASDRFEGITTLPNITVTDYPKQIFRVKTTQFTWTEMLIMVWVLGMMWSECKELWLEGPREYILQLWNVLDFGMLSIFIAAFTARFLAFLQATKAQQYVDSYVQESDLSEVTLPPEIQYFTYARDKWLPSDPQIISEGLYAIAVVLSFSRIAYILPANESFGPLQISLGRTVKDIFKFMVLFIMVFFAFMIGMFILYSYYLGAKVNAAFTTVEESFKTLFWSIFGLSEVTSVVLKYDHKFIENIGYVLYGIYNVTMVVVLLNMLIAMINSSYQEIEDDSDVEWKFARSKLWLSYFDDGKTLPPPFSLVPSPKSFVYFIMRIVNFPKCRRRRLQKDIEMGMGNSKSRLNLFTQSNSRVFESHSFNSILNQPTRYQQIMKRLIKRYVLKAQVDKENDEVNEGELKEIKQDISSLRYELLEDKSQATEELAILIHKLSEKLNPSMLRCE

IC50 [1] | Compound | further results
452 nM | O=C1NC(=O)C(N2CCc3c(ncnc3Oc3ccccc3C(F)(F)F)C2)=C1Cl | –
1070 nM | CCc1ccccc1Oc1ncnc2c1CCN(C1=C(Cl)C(=O)NC1=O)C2 | –
> 10000 nM | O=C1NC(=O)C(N2CCc3c(ncnc3Oc3ccc(F)cc3C3CCC3)C2)=C1Cl | –
111 nM | O=C1NC(=O)C(N2CCc3c(ncnc3Oc3ccc(F)cc3C3CC3)C2)=C1Cl | –
211 nM | O=C1CN(c2cn[nH]c(=O)c2Cl)CCN1Cc1ccccc1C(F)(F)F | Activity [2]: Non-Toxic; Activity (MPC-5): Dde; Activity (Hepatocyte): Non-Toxic; IC50 [3]: 50.1 nM
> 10000 nM | Cn1ncc(N2CCN(Cc3ccccc3C(F)(F)F)C(=O)C2)c(Cl)c1=O | –
798 nM | CCc1nc2c(c(Oc3ccc(F)cc3C(F)(F)F)n1)CCN(C1=C(Cl)C(=O)NC1=O)C2 | –
> 10000 nM | O=C1CN(c2cc(=O)[nH]cn2)CCN1Cc1ccccc1C(F)(F)F | –
> 10000 nM | O=C(NCc1ccccc1C(F)(F)F)C1CN(c2cn[nH]c(=O)c2Cl)C1 | –
60 nM | O=C1NC(=O)C(N2CCc3c(ncnc3Oc3ccc(F)cc3C(F)(F)F)C2)=C1Cl | Activity [2]: Non-Toxic; Activity (MPC-5): Dde; IC50 [4]: 65 nM; inhibition [5]: Dde; Activity (Hepatocyte): Non-Toxic; inhibition [6]: Active; IC50 [3]: 14.1 nM
> 10000 nM | Cn1c(N2CCN(Cc3ccccc3C(F)(F)F)C(=O)C2)cc(=O)[nH]c1=O | –
629 nM | C#Cc1cc(F)ccc1Oc1ncnc2c1CCN(C1=C(Cl)C(=O)NC1=O)C2 | –
2540 nM | O=C1NC(=O)C(N2CCc3c(ncnc3Oc3ccc(F)cc3CC(F)(F)F)C2)=C1Cl | –
> 10000 nM | O=C1CN(c2cn[nH]c(=O)c2)CCN1Cc1ccccc1C(F)(F)F | –
> 10000 nM | O=C1NC(=O)C(N2CCc3c(ncnc3Oc3ccc(F)cc3C3CCCC3)C2)=C1Cl | –
314 nM | O=C1NC(=O)C(N2CCc3c(ncnc3Oc3ccc(Cl)cc3C(F)(F)F)C2)=C1Cl | –
> 10000 nM | O=C1NC(=O)C(N2CCc3c(ncnc3Oc3ccc(C(F)(F)F)cc3)C2)=C1Cl | –

IC50 [1] | Compound | further results
> 10000 nM | O=C(CC1CN(c2cn[nH]c(=O)c2Cl)C1)NCc1ccccc1C(F)(F)F | –
664 nM | N#Cc1cc(F)ccc1Oc1ncnc2c1CCN(C1=C(Cl)C(=O)NC1=O)C2 | –
654 nM | O=C1NC(=O)C(N2CCc3c(ncnc3Oc3ccccc3Cl)C2)=C1Cl | –
10400 nM | O=C1NC(=O)C(N2CCN(Cc3ccccc3C(F)(F)F)C(=O)C2)=C1Cl | –
> 10000 nM | CN(Cc1ccccc1C(F)(F)F)C(=O)C1CN(c2cn[nH]c(=O)c2Cl)C1 | –
280 nM | O=C1NC(=O)C(N2CCc3c(ncnc3Oc3ccc(F)cc3Cl)C2)=C1Cl | –
> 10000 nM | Cc1cc(F)ccc1Oc1ncnc2c1CCN(C1=C(Cl)C(=O)NC1=O)C2 | –
955 nM | O=C1NC(=O)C(N2CCc3c(cnn3Cc3ccccc3C(F)(F)F)C2)=C1Cl | –
> 10000 nM | O=C1CN(c2cn[nH]c(=O)c2Cl)CN1Cc1ccccc1C(F)(F)F | –
2080 nM | O=C1NC(=O)C(N2CCc3c(nc(C4CC4)nc3Oc3ccc(F)cc3C(F)(F)F)C2)=C1Cl | –
776 nM | O=C1NC(=O)C(N2CCc3c(ncnc3Oc3c(F)cccc3C(F)(F)F)C2)=C1Cl | –
125 nM | Cc1nc2c(c(Oc3ccc(F)cc3C(F)(F)F)n1)CCN(C1=C(Cl)C(=O)NC1=O)C2 | –
> 10000 nM | CN(CC(=O)NCc1ccccc1C(F)(F)F)c1cn[nH]c(=O)c1Cl | –
> 10000 nM | Cn1c(N2CCN(Cc3ccccc3C(F)(F)F)C(=O)C2)cc(=O)n(C)c1=O | –
> 10000 nM | O=C1CN(c2cc(=O)[nH]c(=O)[nH]2)CCN1Cc1ccccc1C(F)(F)F | –
> 10000 nM | O=C1NC(=O)C(N2CCc3c(ncnc3Oc3cccc(C(F)(F)F)c3)C2)=C1Cl | –
860 nM | O=C1NC(=O)C(N2CCc3ncn(Cc4ccccc4C(F)(F)F)c3C2)=C1Cl | –
